# Assay results from article PMC12567096, “An Efficacy- and In Vivo Exposure-Oriented Integrated Study to Investigate the Effective Components of Qishen Granule” (Pharmaceuticals, 2025).
# Legend:
# [1] = Pharmacokinetic study in rats after oral administration of QSG; settings: for AUC(0-inf): AUC0→∞; for Oral relative bioavailability: exposure level (AUC0→∞) compared with the dosage of each compound in QSG; for Shape of the plasma concentration–time curve (in words): rats
# OGD/R-induced H9c2 cells = experiment: Protective effect on OGD/R-induced H9c2 cells (CCK-8 cell viability); assay type: cell-based, rat; settings: for H9c2 cell survival after OGD/R (in words): 1, 10, 25, 50 and 100 μM prior to OGD/R, vs model group; for EC50: protective effect against OGD/R injury, H9c2 cell viability
# Procedure: (§1) Rat myocardial H9c2 cells (purchased from China Infrastructure of Cell Line Resources, Institute of Basic Medical Sciences, Chinese Academy of Medical Sciences) were cultured in DMEM supplemented with 10% fetal bovine serum (FBS), Penicillin (100 U/mL), and Streptomycin (100 μg/mL) at 37 °C under a humidified atmosphere of 5% CO2 and 95% air. For OGD/R treatment, H9c2 cells were cultured in glucose-free DMEM under hypoxic conditions (95%N2 + 5%CO2) for 4 h at 37 °C followed by complete medium under normal conditions with air (95%) and CO2 (5%) for 2 h. A control group was maintained under normal culture conditions (with glucose-containing DMEM and 5% CO2) without undergoing OGD/R treatment. CCK8 was used to assess cell viability. After treatment, H9c2 cells were seeded in 96-well plates, with each well supplemented with 10 μL of CCK-8 solution and then incubated for 1 h. Finally, the absorbance at 450 nm was detected by a microplate reader (Model […] 200 PRO, TECAN, Grodig, Austria).
# (§2) When evaluating the cytotoxicities of the absorbed compounds, the H9c2 cells were seeded in 96-well plates at a density of 1 × 10^4 cells/well; when cells reached 80% confluence, they were treated with 25 and 50 μM of the 24 analytes to screen the non-toxic concentration ranges. Afterward, the protective effects were verified by assessing the cell viability when treating with different concentrations (1, 10, 25, 50, and 100 μM) of the analytes prior to OGD/R treatment.
# [2] = Concentrations of 24 analytes in QSG treated plasma (Table S5); settings: for concentration at 0.08 h / concentration at 0.17 h / concentration at 0.5 h / concentration at 1 h / concentration at 2 h / concentration at 4 h / concentration at 8 h / concentration at 12 h: Sprague Dawley, rat, plasma, oral, 7 g/kg; for Concentration: QSG treated plasma, n = 5
# H9c2 cells = experiment: Cytotoxicity on H9c2 cells (CCK-8); assay type: cell-based, rat; settings: for inhibition at 25 µM / inhibition at 50 µM / inhibition at 100 µM: Rattus norvegicus, read-out: Inhibition rate; for inhibition at 25 µM / inhibition at 50 µM / inhibition at 100 µM / Inhibition rate: H9c2 cells, n=3
# Procedure: as §1
# as §2, with “they were treated with 25 and 50 μM of the 24 analytes to screen the non-toxic concentration ranges.” left out
# [3] = Sprague Dawley, rat, plasma, po, 7 g/kg
# [4] = Sprague Dawley, rat, plasma, po, 7 g/kg, Table S12, rats, oral QSG
# [5] = Sprague Dawley, rat, plasma, po, 7 g/kg, rat plasma, single oral 7 g/kg QSG, n = 6
# [6] = rat plasma, single oral 7 g/kg QSG, n = 6
smiles,measurement,setting,value
COc1ccc(-c2coc3cc(O)ccc3c2=O)cc1 [Formononetin],AUC,[1]; [3],27.7 ng·h/mL
same,AUC(0-t),[1]; [3],18.5 ± 5.01 ng·h/mL
same,Cmax,[1]; [3],4.31 ± 0.952 ng/mL
same,MRT,[1]; [3],6.79 ± 4.77 h
same,Tmax,[1]; [3],0.516 ± 0.15 h
same,half-life,[1]; [3],10.9 ± 9.19 h
same,AUC(0-inf),[1]; [4],27.7 ng·h/mL
same,AUC(0-inf),[1]; [5],27.7 ± 12.2 ng·h/mL
same,Oral relative bioavailability,[1],0.033%
same,H9c2 cell survival after OGD/R (in words),OGD/R-induced H9c2 cells,significantly improve H9c2 cell survival rates
same,EC50,OGD/R-induced H9c2 cells; Rattus norvegicus,65 µM
same,Protective effects on OGD/R-induced H9c2 cells (in words),OGD/R-induced H9c2 cells; at 50 and 100 μM,significant protective effects
same,concentration at 0.08 h,[2],0.74 ± 0.932 ng/mL
same,concentration at 0.17 h,[2],2.81 ± 1.24 ng/mL
same,concentration at 0.5 h,[2],4.23 ± 0.976 ng/mL
same,concentration at 1 h,[2],2.77 ± 1.06 ng/mL
same,concentration at 2 h,[2],1.45 ± 0.436 ng/mL
same,concentration at 4 h,[2],1.03 ± 0.395 ng/mL
same,concentration at 8 h,[2],0.656 ± 0.349 ng/mL
same,concentration at 12 h,[2],0.289 ± 0.213 ng/mL
same,inhibition at 25 µM,H9c2 cells; 25 μM,10.7 ± 4.5%
same,inhibition at 50 µM,H9c2 cells; 50 μM,10.8 ± 5.2%
same,inhibition at 100 µM,H9c2 cells; 100 μM,13.5 ± 2.2%
O=C(/C=C/c1ccc(O)c(O)c1)O[C@H]1[C@H](O)C[C@](O)(C(=O)O)C[C@H]1OC(=O)/C=C/c1ccc(O)c(O)c1 [Isochlorogenic acid C],AUC0→∞,"[1]; Table S12, rats, oral QSG",170.5 ng·h/mL
same,AUCi,"[1]; exposure (AUC0→∞) of the component in rats after oral QSG, as used for ECI",170.5
same,Oral relative bioavailability,[1],0.008%
same,Absorption efficiency / bioavailability (in words),"[1]; from Table S12, rats, oral QSG",less readily absorbed
same,AUC0→t,[1]; [6],116.3 ± 39.63 ng·h/mL
same,AUC0→∞,[1]; [6],170.5 ± 80.02 ng·h/mL
same,Cmax,[1]; [6],33.95 ± 8.980 ng/mL
same,MRT,[1]; [6],8.361 ± 4.800 h
same,T1/2,[1]; [6],16.43 ± 14.14 h
same,Tmax,[1]; [6],0.334 ± 0.165 h
same,Shape of the plasma concentration–time curve (in words),[1]; oral QSG,Double peaks
same,H9c2 cell survival after OGD/R (in words),OGD/R-induced H9c2 cells,significantly improve H9c2 cell survival rates
same,EC50,OGD/R-induced H9c2 cells,1.09 µM
same,Concentration,[2]; 0.08 h,12.829 ± 7.386 ng/mL
same,Concentration,[2]; 0.17 h,23.904 ± 9.523 ng/mL
same,Concentration,[2]; 0.5 h,18.491 ± 8.090 ng/mL
same,Concentration,[2]; 1 h,11.005 ± 7.334 ng/mL
same,Concentration,[2]; 2 h,7.777 ± 3.293 ng/mL
same,Concentration,[2]; 4 h,2.637 ± 2.154 ng/mL
same,Concentration,[2]; 8 h,7.703 ± 2.363 ng/mL
same,Concentration,[2]; 12 h,1.848 ± 1.625 ng/mL
same,Inhibition rate,H9c2 cells; 25 μM,-11.8 ± 6.3%
same,Inhibition rate,H9c2 cells; 50 μM,-16.6 ± 1.3%
same,Inhibition rate,H9c2 cells; 100 μM,-6.3 ± 2.3%
same,Effect on H9c2 cell viability / cytotoxicity (in words),"H9c2 cells; CCK-8, compared to the control group",significantly enhanced cell viabilities
O=C(/C=C/c1ccc(O)cc1)c1ccc(O)cc1O [Isoliquiritigenin],AUC,[1]; [3],4.89 ng·h/mL
same,AUC(0-t),[1]; [3],3.17 ± 0.843 ng·h/mL
same,Cmax,[1]; [3],1.65 ± 0.585 ng/mL
same,MRT,[1]; [3],7.68 ± 2.17 h
same,Tmax,[1]; [3],0.17 h
same,half-life,[1]; [3],12.4 ± 10.5 h
same,AUC(0-inf),[1]; [4],4.89 ng·h/mL
same,AUC(0-inf),[1]; [5],4.89 ± 2.77 ng·h/mL
same,Shape of the plasma concentration–time curve (in words),[1]; oral QSG,Double peaks
same,H9c2 cell survival after OGD/R (in words),OGD/R-induced H9c2 cells,significantly improve H9c2 cell survival rates
same,EC50,OGD/R-induced H9c2 cells; Rattus norvegicus,10.3 µM
same,concentration at 0.08 h,[2],0.69 ± 0.227 ng/mL
same,concentration at 0.17 h,[2],1.65 ± 0.585 ng/mL
same,concentration at 0.5 h,[2],0.454 ± 0.151 ng/mL
same,concentration at 1 h,[2],0.355 ± 0.17 ng/mL
same,concentration at 2 h,[2],0.179 ± 0.041 ng/mL
same,concentration at 4 h,[2],0.231 ± 0.054 ng/mL
same,concentration at 8 h,[2],0.053 ± 0.038 ng/mL
same,concentration at 12 h,[2],0.124 ± 0.092 ng/mL
same,inhibition at 25 µM,H9c2 cells; 25 μM,-14.9 ± 9.3%
same,inhibition at 50 µM,H9c2 cells; 50 μM,-1.2 ± 7.6%
same,inhibition at 100 µM,H9c2 cells; 100 μM,7.2 ± 4.2%
O=c1cc(-c2ccc(O)c(O)c2)oc2cc(O)cc(O)c12 [Luteolin],AUC,[1]; [3],10.9 ng·h/mL
same,AUC(0-t),[1]; [3],10.3 ± 0.93 ng·h/mL
same,Cmax,[1]; [3],12.8 ± 4.12 ng/mL
same,MRT,[1]; [3],1.84 ± 0.448 h
same,Tmax,[1]; [3],0.17 h
same,half-life,[1]; [3],2.6 ± 1.22 h
same,AUC(0-inf),[1]; [5],10.9 ± 0.867 ng·h/mL
same,H9c2 cell survival after OGD/R (in words),OGD/R-induced H9c2 cells,significantly improve H9c2 cell survival rates
same,EC50,OGD/R-induced H9c2 cells; Rattus norvegicus,11.3 µM
same,concentration at 0.08 h,[2],5.84 ± 1.29 ng/mL
same,concentration at 0.17 h,[2],13.6 ± 4.12 ng/mL
same,concentration at 0.5 h,[2],4.37 ± 1.59 ng/mL
same,concentration at 1 h,[2],2.41 ± 0.697 ng/mL
same,concentration at 2 h,[2],0.911 ± 0.249 ng/mL
same,concentration at 4 h,[2],0.251 ± 0.183 ng/mL
same,concentration at 8 h,[2],0.188 ± 0.101 ng/mL
same,concentration at 12 h,[2],0.042 ± 0.044 ng/mL
same,inhibition at 25 µM,H9c2 cells; 25 μM,12.2 ± 4%
same,inhibition at 50 µM,H9c2 cells; 50 μM,13.1 ± 7.2%
same,inhibition at 100 µM,H9c2 cells; 100 μM,18.1 ± 4.2%
